Measurements as given in ChEMBL document CHEMBL1201862, “PubChem BioAssay data set” (2004).
The source made the active and inactive calls.

Legend:
HEK293 [1] = assay: NOD1 signaling inhibitors, primary screen, cell-based, luminescence, uHTS (AID 1578); type: functional; settings: Homo sapiens
HEK293 [2] = assay: cells; type: functional, cell-based; settings: Homo sapiens
HEK293 [3] = assay: cells; type: functional, cell-based; settings: Homo sapiens; remark: listed apart in the source
[4] = molecular target: Nucleotide-binding oligomerization domain-containing protein 2 (Homo sapiens, UniProt Q9HC29); assay: NOD2 signaling inhibitors, cell-based, luminescence, uHTS, HEK293 (AID 1566); type: functional
HEK293 [5] = assay: NOD2 signaling inhibitors in MDP-stimulated cells, cell-based, uHTS, luminescence (AID 2001); type: functional; settings: Homo sapiens
HEK293 [6] = assay: cells; type: functional, cell-based; settings: Homo sapiens; remark: listed apart in the source
Tumor necrosis factor = Tumor necrosis factor (Homo sapiens, UniProt P01375); assay: TNFa-triggered NF-kB activation inhibitors, SAR follow-up, cell-based, revised (AID 2337); type: functional
[7] = molecular target: T1, Nucleotide-binding oligomerization domain-containing protein 1 (Homo sapiens, UniProt Q9Y239); assay: NOD1 signaling inhibitors, SAR follow-up, revised (AID 2333); type: functional
T1 sequence (Q9Y239 whole entry): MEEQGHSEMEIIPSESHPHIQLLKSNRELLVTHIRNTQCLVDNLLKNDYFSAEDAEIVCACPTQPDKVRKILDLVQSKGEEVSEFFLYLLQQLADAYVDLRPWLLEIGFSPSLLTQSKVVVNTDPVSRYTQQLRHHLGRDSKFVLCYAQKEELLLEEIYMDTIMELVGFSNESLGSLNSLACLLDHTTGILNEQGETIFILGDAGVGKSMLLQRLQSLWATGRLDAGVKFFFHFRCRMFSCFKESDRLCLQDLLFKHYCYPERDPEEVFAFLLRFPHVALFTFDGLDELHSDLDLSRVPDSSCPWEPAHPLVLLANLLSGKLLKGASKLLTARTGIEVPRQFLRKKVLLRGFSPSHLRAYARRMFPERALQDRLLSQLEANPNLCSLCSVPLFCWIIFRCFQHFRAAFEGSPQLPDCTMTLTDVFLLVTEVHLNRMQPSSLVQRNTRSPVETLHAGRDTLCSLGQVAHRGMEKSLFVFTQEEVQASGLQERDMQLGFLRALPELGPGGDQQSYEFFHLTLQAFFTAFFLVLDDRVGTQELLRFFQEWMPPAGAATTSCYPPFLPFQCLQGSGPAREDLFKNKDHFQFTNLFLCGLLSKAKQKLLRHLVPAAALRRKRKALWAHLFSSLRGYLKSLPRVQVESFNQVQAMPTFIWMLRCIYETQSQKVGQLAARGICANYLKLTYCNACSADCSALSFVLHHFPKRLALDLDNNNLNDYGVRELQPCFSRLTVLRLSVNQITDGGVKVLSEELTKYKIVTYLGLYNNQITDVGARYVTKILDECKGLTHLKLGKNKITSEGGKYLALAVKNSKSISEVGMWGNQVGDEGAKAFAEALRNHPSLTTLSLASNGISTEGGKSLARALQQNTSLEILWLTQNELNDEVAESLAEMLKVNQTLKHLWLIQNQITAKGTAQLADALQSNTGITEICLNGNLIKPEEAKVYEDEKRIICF

X-box-binding protein 1 = molecular target: T2, X-box-binding protein 1 (Homo sapiens, UniProt P17861); type: functional, Cricetulus griseus;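 further: confirmatory dose-response counter-screen serving a CHOP assay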
T2 sequence (P17861 whole entry): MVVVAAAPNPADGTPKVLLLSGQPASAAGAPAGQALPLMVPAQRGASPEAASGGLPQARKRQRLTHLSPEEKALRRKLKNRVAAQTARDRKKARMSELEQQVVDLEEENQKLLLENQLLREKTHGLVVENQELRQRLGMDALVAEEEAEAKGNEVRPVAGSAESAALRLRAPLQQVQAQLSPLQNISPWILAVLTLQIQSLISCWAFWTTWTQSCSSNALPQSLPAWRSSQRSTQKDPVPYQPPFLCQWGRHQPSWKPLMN

HEK293 [8] = assay: cells; settings: Homo sapiens
[9] = HEp-2 cell cytotoxicity, dose response, cytotoxicity control for RSV inhibitor project, HTS (AID 2410); type: functional; settings: human respiratory syncytial virus
[10] = Luminescence Cell-Based Dose Confirmation HTS to Identify Activators of 5'UTR Stem-Loop Driven Alpha-Synuclein mRNA Translation in H4 Neuroglioblastoma Cells. [Related pubchem assays: 1829 (Project Summary), 1814 (Primary HTS)]; type: functional
[11] = insulin promoter down-regulators in MIN6 cells, imaging, high-content screening, mouse beta cells (AID 1628); type: functional
[12] = Luminescence Cell-Based Dose Response HTS to Identify Activators of Luciferase Translation or Activity in H4 […] Cells. [Related pubchem assays: 1829 (Project Summary), 1814 (Primary HTS)]; type: functional
[13] = cytotoxicity in MIN6 insulinoma cells, dose response, cytotoxicity control, cell-based, mouse insulinoma (AID 2122); type: functional;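 further: confirmatory high-throughput counterscreen run to flag cytotoxic compounds; mouse MIN-6 beta cells carrying an insulin promoter eGFP reporter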
H4 = assay: Luminescence Cell-Based Dose Response HTS to Identify Activators of 5'UTR Stem-Loop Driven Prion Protein mRNA Translation in H4 Neuroglioblastoma Cells. [Related pubchem assays: 1829 (Project Summary), 1814 (Primary HTS)]; type: functional; settings: Homo sapiens
[14] = microbe, parasite or virus in culture; type: functional; settings: Mycobacterium tuberculosis
INS1 = assay: beta cell apoptosis inhibitors, cytokine rescue, dose response, luminescence, retest (AID 449756); type: functional, cell-based; settings: Rattus norvegicus;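 further: cell death triggered by IL-1 beta plus TNF-alpha plus IFN-gamma mixture; protective hits raise ATP signal compared with cytokine alone wells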
[15] = molecular target: Disintegrin and metalloproteinase domain-containing protein 17 (Homo sapiens, UniProt P78536); assay: exosite inhibitors of ADAM17, dose response, biochemical (AID 743260)
[16] = ADAM10 protease inhibitors, dose response, selectivity assay for ADAM17 exosite inhibitor project, biochemical, FRET peptide substrate, recombinant human ADAM10 (AID 743259);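 further: ADAM10 enzyme cleaving a FRET peptide substrate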
[17] = molecular target: Lysine-specific demethylase 4A (Homo sapiens, UniProt O75164); assay: JMJD2A histone demethylase inhibitors, dose response, selectivity assay for GASC-1 inhibitor project, biochemical, DELFIA europium, cherry-picked samples (AID 488840)
[18] = molecular target: T3, Intestinal-type alkaline phosphatase (Mus musculus, UniProt P24822); assay: PubChem AID 488785; type: functional
Hexokinase HKDC1 = molecular target: T4, Hexokinase HKDC1 (Homo sapiens, UniProt Q2TB90); assay: HKDC1 hexokinase inhibitors, dose response, biochemical, W721R variant (AID 504729); type: functional
T4 sequence (Q2TB90 whole entry): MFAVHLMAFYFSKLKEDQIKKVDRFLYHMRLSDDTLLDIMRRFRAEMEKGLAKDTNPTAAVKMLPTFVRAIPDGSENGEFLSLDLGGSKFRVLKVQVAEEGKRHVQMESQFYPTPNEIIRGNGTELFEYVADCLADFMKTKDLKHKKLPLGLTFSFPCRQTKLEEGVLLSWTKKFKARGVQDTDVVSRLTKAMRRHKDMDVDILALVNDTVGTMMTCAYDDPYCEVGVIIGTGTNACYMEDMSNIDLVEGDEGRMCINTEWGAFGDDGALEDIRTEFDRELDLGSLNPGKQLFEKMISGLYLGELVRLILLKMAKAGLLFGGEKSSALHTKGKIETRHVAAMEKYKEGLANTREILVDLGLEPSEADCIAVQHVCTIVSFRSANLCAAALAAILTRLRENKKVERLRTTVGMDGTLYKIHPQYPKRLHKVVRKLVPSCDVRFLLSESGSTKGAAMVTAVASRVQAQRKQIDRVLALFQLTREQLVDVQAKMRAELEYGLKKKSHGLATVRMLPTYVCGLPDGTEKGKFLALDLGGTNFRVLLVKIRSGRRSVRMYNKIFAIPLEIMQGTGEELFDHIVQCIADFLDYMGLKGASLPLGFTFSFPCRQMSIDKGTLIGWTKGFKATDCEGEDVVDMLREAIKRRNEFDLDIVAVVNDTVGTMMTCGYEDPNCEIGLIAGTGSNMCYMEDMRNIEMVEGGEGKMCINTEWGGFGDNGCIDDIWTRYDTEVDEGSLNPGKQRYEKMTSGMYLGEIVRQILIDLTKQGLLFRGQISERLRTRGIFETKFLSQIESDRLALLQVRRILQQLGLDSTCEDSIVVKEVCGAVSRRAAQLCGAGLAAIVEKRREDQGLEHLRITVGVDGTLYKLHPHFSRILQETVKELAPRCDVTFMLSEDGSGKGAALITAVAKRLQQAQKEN

[19] = molecular target: T5, Alkaline phosphatase, tissue-nonspecific isozyme (Homo sapiens, UniProt P05186); assay: TNAP enzyme inhibition by screening hits, dose response, selectivity assay for mouse IAP inhibitor project, biochemical, human TNAP, uHTS hits (AID 488906); type: functional
T5 sequence (P05186 whole entry): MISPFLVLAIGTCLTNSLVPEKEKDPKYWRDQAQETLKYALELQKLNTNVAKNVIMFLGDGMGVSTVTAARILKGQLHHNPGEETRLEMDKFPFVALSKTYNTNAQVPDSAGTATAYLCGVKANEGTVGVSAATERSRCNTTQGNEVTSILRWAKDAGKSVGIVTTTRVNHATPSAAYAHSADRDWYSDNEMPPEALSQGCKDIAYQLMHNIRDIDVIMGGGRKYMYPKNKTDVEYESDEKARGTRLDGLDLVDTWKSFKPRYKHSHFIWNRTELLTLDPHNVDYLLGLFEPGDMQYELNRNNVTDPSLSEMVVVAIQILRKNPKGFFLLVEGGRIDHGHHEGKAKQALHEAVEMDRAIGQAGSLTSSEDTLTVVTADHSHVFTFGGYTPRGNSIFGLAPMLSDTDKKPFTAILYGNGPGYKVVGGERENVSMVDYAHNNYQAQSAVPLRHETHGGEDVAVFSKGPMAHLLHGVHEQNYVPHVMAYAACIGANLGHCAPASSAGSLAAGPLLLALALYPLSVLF

[20] = molecular target: T6, Intestinal-type alkaline phosphatase (Homo sapiens, UniProt P09923); assay: inhibition of human intestinal alkaline phosphatase – biochemical, dose response (AID 488876); type: functional
[21] = tested on: Streptococcus sp. 'group A'; assay: growth inhibition of control SK(-) GAS strain, dose response, counter-screen for streptokinase expression inhibitor project, luminescence, kanamycin, BacTiterGlo, confirmation (AID 1900); type: functional, organism-based
[22] = molecular target: T7, Heat shock factor protein 1 (Mus musculus, UniProt P38532); assay: inhibition of MG132-induced HSE-luciferase signal, confirmation, cell-based, NIH3T3, luminescence, dose retest (AID 2382); type: functional;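 further: NIH3T3 fibroblasts with HSF1-driven luciferase reporter stressed by proteasome inhibitor MG132; luminescence from HSF1-driven luciferase expression after 8 hours of MG132 stress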
T7 sequence (P38532 whole entry): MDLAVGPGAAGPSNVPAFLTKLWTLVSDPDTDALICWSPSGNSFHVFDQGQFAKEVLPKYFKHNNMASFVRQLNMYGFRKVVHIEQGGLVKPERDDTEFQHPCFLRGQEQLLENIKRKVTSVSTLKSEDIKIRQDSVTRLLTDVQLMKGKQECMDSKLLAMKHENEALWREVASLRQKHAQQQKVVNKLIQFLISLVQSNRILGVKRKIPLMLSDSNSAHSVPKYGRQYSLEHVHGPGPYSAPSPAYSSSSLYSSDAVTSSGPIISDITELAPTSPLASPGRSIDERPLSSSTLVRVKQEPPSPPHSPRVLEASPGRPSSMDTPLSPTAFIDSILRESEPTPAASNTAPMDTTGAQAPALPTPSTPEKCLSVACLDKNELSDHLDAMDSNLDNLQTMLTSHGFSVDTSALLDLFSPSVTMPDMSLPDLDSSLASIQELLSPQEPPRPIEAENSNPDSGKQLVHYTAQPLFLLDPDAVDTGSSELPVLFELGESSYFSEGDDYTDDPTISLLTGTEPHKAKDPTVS

Streptococcus = assay: Group A Streptococcus viability loss, dose response, counter-screen for streptokinase expression inhibitor project, luminescence, BacTiterGlo (AID 1915); type: functional, organism-based;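 further: potency for reduction of bacterial viability or growth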
[23] = molecular target: T3, Intestinal-type alkaline phosphatase; assay: PubChem AID 488874; type: functional
[24] = molecular target: T6, Intestinal-type alkaline phosphatase; assay: human intestinal alkaline phosphatase activators, dose response, biochemical, luminescence, uHTS hits (AID 463120); type: functional
Nonstructural protein 1 = Nonstructural protein 1 (Influenza A virus, UniProt Q194T2); type: functional, Influenza A virus (A/California/07/2009(H1N1))
[25] = molecular target: T6, Intestinal-type alkaline phosphatase; assay: human IAP activators, dose response, biochemical, luminescent, uHTS hits, set 2 (AID 488817); type: functional;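 further: potency of activators that raise enzyme activity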
[26] = molecular target: T5, Alkaline phosphatase, tissue-nonspecific isozyme; assay: TNAP enzyme activators, dose response, selectivity assay for human IAP activator project, biochemical, TNAP isozyme, human IAP uHTS hits (AID 488886); type: functional;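 further: potency of compounds raising TNAP activity as a selectivity check on IAP activators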
Albumin = Albumin (Bos taurus, UniProt P02769); assay: Counterscreen for inhibitors of T-cell receptor (TCR)-CD3 interaction: Fluorescence-based biochemical high throughput dose response assay to identify inhibitors of T-cell receptor (TCR)-CD3 interaction using a TAMRA-labeled BSA probe.; type: functional
Sequence of Albumin (P02769 whole entry): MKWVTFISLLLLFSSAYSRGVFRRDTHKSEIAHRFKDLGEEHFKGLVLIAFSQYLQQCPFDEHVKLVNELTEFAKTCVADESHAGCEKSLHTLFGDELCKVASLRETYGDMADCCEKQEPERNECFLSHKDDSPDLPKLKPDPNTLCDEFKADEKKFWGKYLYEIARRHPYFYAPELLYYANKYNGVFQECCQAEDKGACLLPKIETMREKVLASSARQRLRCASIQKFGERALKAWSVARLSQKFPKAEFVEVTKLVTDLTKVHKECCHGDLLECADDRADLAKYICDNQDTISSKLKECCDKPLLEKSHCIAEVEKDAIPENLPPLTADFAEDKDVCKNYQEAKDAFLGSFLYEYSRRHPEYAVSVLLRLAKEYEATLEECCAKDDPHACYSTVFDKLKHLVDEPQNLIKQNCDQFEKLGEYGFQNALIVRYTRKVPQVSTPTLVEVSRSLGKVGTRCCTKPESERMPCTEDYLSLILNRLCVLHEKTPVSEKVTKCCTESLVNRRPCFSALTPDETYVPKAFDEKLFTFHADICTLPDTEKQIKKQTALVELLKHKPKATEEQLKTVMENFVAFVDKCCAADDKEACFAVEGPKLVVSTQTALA

T6 sequence (P09923 whole entry): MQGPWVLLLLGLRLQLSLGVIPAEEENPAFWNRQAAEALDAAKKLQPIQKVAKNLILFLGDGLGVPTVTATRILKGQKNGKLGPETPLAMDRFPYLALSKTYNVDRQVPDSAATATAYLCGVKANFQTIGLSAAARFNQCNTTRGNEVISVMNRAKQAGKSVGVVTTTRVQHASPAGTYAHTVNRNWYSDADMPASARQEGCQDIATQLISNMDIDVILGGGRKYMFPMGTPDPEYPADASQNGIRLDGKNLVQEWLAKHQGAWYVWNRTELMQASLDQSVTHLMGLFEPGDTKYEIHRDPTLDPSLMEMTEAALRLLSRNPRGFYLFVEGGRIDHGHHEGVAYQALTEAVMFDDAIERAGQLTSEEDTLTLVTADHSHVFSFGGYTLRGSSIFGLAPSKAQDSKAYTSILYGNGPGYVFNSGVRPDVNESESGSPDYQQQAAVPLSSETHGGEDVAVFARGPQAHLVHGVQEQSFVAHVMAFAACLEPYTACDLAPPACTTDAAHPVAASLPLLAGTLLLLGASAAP
T3 sequence (P24822 whole entry): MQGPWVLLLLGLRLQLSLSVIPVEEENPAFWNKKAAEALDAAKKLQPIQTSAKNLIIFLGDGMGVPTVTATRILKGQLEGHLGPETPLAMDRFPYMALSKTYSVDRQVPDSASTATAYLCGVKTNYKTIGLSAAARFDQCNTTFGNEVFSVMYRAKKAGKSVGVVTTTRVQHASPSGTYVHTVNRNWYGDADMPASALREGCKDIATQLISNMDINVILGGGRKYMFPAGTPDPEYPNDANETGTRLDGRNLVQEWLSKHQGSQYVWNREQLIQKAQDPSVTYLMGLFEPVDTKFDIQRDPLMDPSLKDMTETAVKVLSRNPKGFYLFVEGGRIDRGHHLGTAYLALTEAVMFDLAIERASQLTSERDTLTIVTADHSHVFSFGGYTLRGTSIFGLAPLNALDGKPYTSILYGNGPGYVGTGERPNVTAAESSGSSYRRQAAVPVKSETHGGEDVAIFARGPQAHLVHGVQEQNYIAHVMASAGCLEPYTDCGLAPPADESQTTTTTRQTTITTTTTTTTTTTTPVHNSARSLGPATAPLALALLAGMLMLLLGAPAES
Sequence of Nucleotide-binding oligomerization domain-containing protein 2 (Q9HC29 whole entry, the tested form may be a part): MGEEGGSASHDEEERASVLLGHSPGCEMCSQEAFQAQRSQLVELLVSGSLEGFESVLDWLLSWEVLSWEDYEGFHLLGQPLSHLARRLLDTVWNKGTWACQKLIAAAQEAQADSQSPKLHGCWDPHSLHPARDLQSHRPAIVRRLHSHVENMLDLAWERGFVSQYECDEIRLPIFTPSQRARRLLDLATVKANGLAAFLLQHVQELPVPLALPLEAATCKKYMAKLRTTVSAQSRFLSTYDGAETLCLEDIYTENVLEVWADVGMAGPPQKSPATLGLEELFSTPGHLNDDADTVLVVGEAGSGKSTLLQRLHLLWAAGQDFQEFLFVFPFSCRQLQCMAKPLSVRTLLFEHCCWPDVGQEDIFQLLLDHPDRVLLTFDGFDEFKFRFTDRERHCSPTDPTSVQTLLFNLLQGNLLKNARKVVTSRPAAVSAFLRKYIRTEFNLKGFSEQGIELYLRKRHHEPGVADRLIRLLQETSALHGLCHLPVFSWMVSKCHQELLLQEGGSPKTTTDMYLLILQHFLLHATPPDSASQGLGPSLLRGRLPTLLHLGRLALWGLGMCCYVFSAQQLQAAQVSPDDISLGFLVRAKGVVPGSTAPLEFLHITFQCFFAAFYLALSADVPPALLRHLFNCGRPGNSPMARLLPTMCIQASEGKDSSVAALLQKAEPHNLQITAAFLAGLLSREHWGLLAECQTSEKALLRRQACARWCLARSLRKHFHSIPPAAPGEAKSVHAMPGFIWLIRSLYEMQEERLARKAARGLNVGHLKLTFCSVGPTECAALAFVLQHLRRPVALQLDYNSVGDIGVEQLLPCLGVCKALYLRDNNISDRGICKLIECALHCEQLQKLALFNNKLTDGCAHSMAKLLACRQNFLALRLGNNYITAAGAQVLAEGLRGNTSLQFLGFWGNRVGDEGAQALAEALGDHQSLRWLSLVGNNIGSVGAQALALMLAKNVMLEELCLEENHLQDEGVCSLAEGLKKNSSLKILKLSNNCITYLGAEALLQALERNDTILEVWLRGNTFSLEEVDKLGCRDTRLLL
Sequence of Lysine-specific demethylase 4A (O75164 whole entry): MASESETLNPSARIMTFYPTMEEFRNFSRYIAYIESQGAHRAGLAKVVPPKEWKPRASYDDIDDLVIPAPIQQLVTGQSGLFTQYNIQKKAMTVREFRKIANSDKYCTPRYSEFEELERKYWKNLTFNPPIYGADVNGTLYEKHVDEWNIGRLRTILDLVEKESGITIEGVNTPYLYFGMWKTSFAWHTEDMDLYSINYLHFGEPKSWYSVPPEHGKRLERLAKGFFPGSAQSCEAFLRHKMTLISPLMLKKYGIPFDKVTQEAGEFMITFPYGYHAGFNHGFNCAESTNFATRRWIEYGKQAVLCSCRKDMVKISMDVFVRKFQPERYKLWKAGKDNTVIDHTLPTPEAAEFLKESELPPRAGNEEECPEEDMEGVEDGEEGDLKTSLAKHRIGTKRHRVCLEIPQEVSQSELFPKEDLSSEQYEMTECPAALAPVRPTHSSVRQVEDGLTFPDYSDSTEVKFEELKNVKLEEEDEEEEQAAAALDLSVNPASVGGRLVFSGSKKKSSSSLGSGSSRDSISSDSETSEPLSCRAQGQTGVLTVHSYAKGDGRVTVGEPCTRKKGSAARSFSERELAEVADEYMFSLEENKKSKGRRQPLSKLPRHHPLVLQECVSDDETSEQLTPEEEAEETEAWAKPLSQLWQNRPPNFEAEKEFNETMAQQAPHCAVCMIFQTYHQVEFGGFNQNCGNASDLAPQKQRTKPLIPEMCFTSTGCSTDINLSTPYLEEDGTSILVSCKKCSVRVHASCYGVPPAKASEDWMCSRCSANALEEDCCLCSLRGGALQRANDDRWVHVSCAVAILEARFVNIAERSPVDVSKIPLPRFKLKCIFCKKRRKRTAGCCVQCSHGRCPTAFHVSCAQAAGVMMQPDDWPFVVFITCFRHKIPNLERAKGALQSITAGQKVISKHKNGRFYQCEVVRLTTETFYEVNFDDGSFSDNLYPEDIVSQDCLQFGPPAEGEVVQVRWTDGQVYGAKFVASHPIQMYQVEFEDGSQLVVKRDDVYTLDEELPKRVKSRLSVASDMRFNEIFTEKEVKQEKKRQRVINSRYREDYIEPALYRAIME
Sequence of Disintegrin and metalloproteinase domain-containing protein 17 (P78536 whole entry, the tested form may be a part): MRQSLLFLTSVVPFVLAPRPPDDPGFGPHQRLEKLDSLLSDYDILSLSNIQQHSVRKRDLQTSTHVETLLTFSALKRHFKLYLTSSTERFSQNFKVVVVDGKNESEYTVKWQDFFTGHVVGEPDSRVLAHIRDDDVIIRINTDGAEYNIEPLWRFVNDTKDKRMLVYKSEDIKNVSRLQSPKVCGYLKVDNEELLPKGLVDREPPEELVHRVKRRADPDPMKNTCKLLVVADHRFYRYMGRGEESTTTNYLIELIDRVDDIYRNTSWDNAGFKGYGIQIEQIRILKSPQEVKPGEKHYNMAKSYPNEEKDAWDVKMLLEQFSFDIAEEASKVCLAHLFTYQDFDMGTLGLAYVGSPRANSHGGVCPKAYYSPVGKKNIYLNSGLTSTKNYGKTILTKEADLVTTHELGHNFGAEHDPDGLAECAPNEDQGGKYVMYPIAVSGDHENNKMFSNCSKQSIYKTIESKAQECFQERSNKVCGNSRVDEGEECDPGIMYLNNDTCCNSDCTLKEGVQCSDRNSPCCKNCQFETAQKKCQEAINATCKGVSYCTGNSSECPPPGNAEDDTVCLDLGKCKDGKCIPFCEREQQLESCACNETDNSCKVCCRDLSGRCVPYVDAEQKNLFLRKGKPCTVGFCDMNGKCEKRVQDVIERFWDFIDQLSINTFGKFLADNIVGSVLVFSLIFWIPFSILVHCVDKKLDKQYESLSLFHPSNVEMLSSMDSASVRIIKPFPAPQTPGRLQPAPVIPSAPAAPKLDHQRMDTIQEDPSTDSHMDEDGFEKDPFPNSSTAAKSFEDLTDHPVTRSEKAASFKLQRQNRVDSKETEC
Sequence of Nonstructural protein 1 (Q194T2 whole entry): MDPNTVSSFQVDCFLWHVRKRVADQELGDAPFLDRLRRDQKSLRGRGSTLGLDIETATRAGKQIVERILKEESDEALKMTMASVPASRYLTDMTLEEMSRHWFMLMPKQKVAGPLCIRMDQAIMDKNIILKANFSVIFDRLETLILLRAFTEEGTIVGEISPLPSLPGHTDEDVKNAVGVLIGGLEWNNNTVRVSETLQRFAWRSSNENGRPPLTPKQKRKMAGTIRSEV

CCCCn1c(=O)c(C(=O)Nc2cnccn2)c(O)c2ccccc21
inactive: IC50 (HEK293 [2]) > 20 µM | IC50 (HEK293 [3]) > 20 µM | IC50 (HEK293 [6]) > 20 µM | IC50 (HEK293 [8]) > 20 µM
active: EC50 (HEK293 [1]) 3.1 µM | EC50 [4] 1.72 µM | IC50 (HEK293 [5]) 7.07 µM | IC50 (Tumor necrosis factor) 4.92 µM | IC50 [7] 7.68 µM
10 µM: Absolute IC50 (XBP1) (X-box-binding protein 1)

O=C(Nc1nc2ccc(F)cc2s1)C1CCN(S(=O)(=O)c2cc([N+](=O)[O-])ccc2Cl)CC1
active: CC50 [9] 12 µM | EC50 [10] 14.7 µM | IC50 [11] 2.34 µM | EC50 [12] 25.8 µM | IC50 [13] 2.37 µM | EC50 (H4) 4.7 µM | CC50 [14] 20.2 µM | AC50 (INS1) 8.24 µM | IC50 [16] > 7.72 µM
inactive: IC50 [15] > 69.5 µM

CCC(C(=O)NCCCc1ccccc1)c1ccccc1 (centres undefined)
active: AC50 [17] 3.73 µM

NS(=O)(=O)c1ccc(N/N=C2\C(=O)Nn3c2nc2c(c3=O)CCCC2)cc1
active: IC50 [18] 9.28 µM | IC50 (Hexokinase HKDC1) 13.2 µM | IC50 [19] 21.2 µM | IC50 [20] 23.6 µM

CCOC(=O)c1c(C)[nH]c(C(=O)N/N=C/c2cc([N+](=O)[O-])ccc2O)c1C
active: EC50 [21] 2.33 µM | EC50 [22] 0.86 µM | EC50 (Streptococcus) 2.97 µM | EC50 [24] 12.1 µM | IC50 (Nonstructural protein 1) 44 µM | EC50 [25] 11.4 µM | EC50 [26] 22.3 µM
inactive: IC50 [23] > 100 µM | IC50 (Albumin) > 94.1 µM
